According to paper PMC4020785 (PLoS ONE, 2014):
pEC50: −log10 of the molar value.

What was measured:
[1] = test system: J-Lat (clones 9.2 and 10.6); assay: Cell viability of J-Lat clones 9.2 and 10.6 (CellTiter-blue); assay type: cell-based; conditions: J-Lat clones 9.2 and 10.6, 48 h
Method: Cytotoxicity of ISDs was evaluated in J-Lat (clones 9.2 and 10.6) and PHA-activated human PBMCs. […] Cell viability was determined using the CellTiter-blue fluorescence Cell Viability Assay (Promega) following the manufacturer's instruction.

[2] = test system: HIV-1 NL4.3-Luc; assay: Luciferase expression in CD4+ T cells pre-treated and infected with NL4.3-Luc; assay type: cell-based; conditions: cells pre-treated 24 h, infected with NL4.3-Luc MOI 0.1
Method: CD4+ T cells were isolated by negative selection from human PBMCs (2.5×10^8 cells) using magnetic beads (Miltenyi) and incubated with 5 µg/mL PHA-P and 100 U IL-2 for 5 days. Cells were then seeded in 6-well plates (10^6 cells per well) and treated with different concentrations of ING-B. After 24 h, cells were infected with HIV-1 NL-Luc (MOI of 0.1) by spinoculation. Infected cells were kept at 37°C for 24 h and then collected for luciferase activity evaluation as described above.

[3] = Cytotoxicity (CC50) in MT-4 cells; assay type: cell-based; conditions: human, Subtype B (X4)
Method: (§1) Cytotoxicity of ISDs was evaluated in J-Lat (clones 9.2 and 10.6) and PHA-activated human PBMCs. Cells were added to wells in a 96-well plate in the presence of various concentrations of ISDs, PMA or prostratin in sextuplicates for 24 and 72 h. Cell viability was determined using the CellTiter-blue fluorescence Cell Viability Assay (Promega) following the manufacturer's instruction.
(§2) Human PMBCs were incubated with 100 U recombinant IL-2 (Sigma-Aldrich) and 5 µg/mL phytohemagglutinin-P (PHA-P) (Difco) for 5 days at 37°C. MT-4 cells (1×10^6) or treated PBMCs (1.2×10^8) were infected with HIV-1 clone NL-4.3 or ZM247Fv-1 (MOI of 0.001) by spinoculation (1200 g at room temperature for 2 h). Uninfected cells were used as negative control and were also subjected to the spinoculation process. After spinoculation, supernatants were discarded and cells were resuspended in 10 mL of R10. Cells from each condition were then added to wells (96-well plate) containing serial dilutions of each ISD. For MT-4 cells, each dilution was done in sextuplicates and, for PBMCs, in triplicates. Cells were also incubated with different concentrations of ZDV as positive control. After 5 days in culture, Cell Titer Blue was added to each well and cells were incubated for additional 24 h. The median effective concentration for each drug is defined as EC50. In parallel with the infectivity assay, the same cell types were treated with different concentrations of drugs to determine their cytotoxicity, following the protocol described above. Drug concentration that results in a 50% decrease in viable cells is defined as the CC50 for each compound. EC50 was calculated according to Spearman-Karber and therapeutic index was defined by the ratio between CC50 and EC50 [55].

[4] = test system: J1.1 cells; assay: gag p24 production in J1.1 cells (ELISA); assay type: cell-based, HIV-1; conditions: 1 µM, 48 h
Method: ACH-2 and J1.1 are clonal cell lines derived from CEM [52] and Jurkat cells, respectively, after infection with HIV-1. U1 cells were derived from the human promonocyte cell line U937 and chronically infected with HIV-1 [54]. Each cell line (1×10^6 cells) was incubated in the presence of 1 µM of diterpenes (ING-A, ING-B, ING-C, prostratin and PMA) or 10 ng/mL TNF-α for 48 h at 37°C. After incubation, cells were centrifuged and supernatants were collected for the quantitation of gag p24 antigen by ELISA, following the protocol described by the manufacturer (Perkin Elmer).

[5] = set-up: method as in earlier work; conditions: rats, oral dosing; ref personal communication from Aurigon Life Science – Tutzing, Germany; cited from earlier work
[6] = test system: human PBMCs; assay: Cytotoxicity in human PBMCs at 24 and 72 h; assay type: cell-based
Method: as §1

[7] = test system: CD4, CXCR4, CCR5 on CD4+ T lymphocytes; assay: Surface CD4, CXCR4, CCR5 expression in CD4+ T lymphocytes (cytometry); assay type: cell-based, human; conditions: cells from three donors, different concentrations, 24 h
Method: For analysis of cell surface marker expression, MT-4 cells and bead-selected CD4+ T cells (described above) were incubated with 1 µM of each compound (ING-A, ING-B, ING-C, prostratin, PMA, and bryostatin-1) at 37°C for 48 h. After incubation, cells were washed with PBS and incubated for 20 min at room temperature with antibodies against CD3-Brilliant Violet 510 (clone OKT3 – Biolegend), CD4-Qdot 655 (clone 53.5 - Life Technologies), CXCR4-PE (clone 1265 - BD Biosciences), CCR5-PerCP-Cy5.5 (clone 3A9 - BD Biosciences), CD69-Pacific Blue (clone FN50 – BD Biosciences), CD38-FITC (clone AT-1 – Stem Cell Technologies), CD25-APC (clone 2A3 – BD Biosciences), HLA-DR-Qdot 605 (clone TÜ36 – Life Technologies) and a marker for annexin V-FITC (Life Technologies). Cells (both MT-4 cells and CD4+ T cells) were initially incubated for 2 h with different PKC inhibitors (GÖ6983, GÖ6976 or RO-31-8220). Then, ING-B, prostratin or PMA at 1 µM or TNF-α at 10 ng/mL were added to each condition and incubation was carried out for 24 h at 37°C. Similar protocol was used for the analysis of PKC inhibitors in J-Lat clones 9.2 and 10.6. GFP expression, surface marker expression and activation marker were evaluated on a LSR Fortessa cytometer (BD Biosciences). Data analysis was performed using FlowJo software (Tree Star).

[8] = test system: HIV-1 clone ZM247Fv-1 (subtype C); assay: HIV-1 ZM247Fv-1 (subtype C) infection of human PBMCs, Cell Titer Blue readout; assay type: cell-based
Method: as §2
(§3) All statistical analyses were performed using program GraphPism version 6.0. Titrations for TCID50 infectivity were calculated by the Spearman-Karber method. Dose response curves to ISDs with HIV-1 subtype B and C were done using non-linear regression and were fit to the Hill equation.

[9] = test system: human PBMCs; assay: Cellular proliferation assay (CFSE) in human PBMCs; assay type: cell-based; conditions: CFSE-stained human PBMC, 1, 5 or 10 µM, 8 days
Method: Human PBMCs were stained with CFSE following manufacturer's instructions (Sigma-Aldrich). After staining, cells were washed twice in PBS and incubated with ING-B (1, 5 or 10 µM), 5 µg/mL PHA-P plus 10 U/mL IL-2 (as positive control), or DMSO 1% (as negative control). Cell proliferation was assessed for 8 days after stimulation, and relative proliferation index was calculated for all conditions.

[10] = test system: HIV-1 clone ZM247Fv-1 (subtype C); assay: HIV-1 ZM247Fv-1 (subtype C) infection of MT-4 cells, Cell Titer Blue readout; assay type: cell-based
Method: as §2, §3

[11] = Cytotoxicity (CC50) in human PBMCs; assay type: cell-based; conditions: human PBMCs activated with IL-2 and PHA-P; Human PBMC, Subtype C (R5)
Method: as §1, §2

## CCCCCC(=O)O[C@H]1C(C)=C[C@]23C(=O)[C@@H](C=C(CO)[C@@H](O)[C@]12O)[C@H]1[C@@H](C[C@H]3C)C1(C)C [ING-B, ingenol-3-hexanoate]
[1]
  cell viability / toxicity: lower toxicity when compared to its counterparts
[2]
  levels of HIV-driven luciferase: dramatically reduced
[3]
  CC50 at 5 days: 28 µM
[4]
  p24 production (in words): as much p24 production as PMA and TNF-α, and twice as much as prostratin
[5]
  no-observed-adverse-effect level: 4 mg/kg/day
[6]
  cytotoxicity: less cytotoxic after 72 h of treatment
[7]
  downregulation of CD4, CCR5 and CXCR4, dose dependence: dose dependent
[8]; Human PBMC, Subtype C (R5)
  TI (CC50/EC50): 851
[8]; Human immunodeficiency virus 1, PBMC
  pEC50: 7.33
[9]
  cell proliferation: no evidence that ING-B caused cell proliferation
[10]; Human immunodeficiency virus 1, MT4
  pEC50: 7.60
[10]; MT-4 cells, Subtype C (R5)
  TI (CC50/EC50): 1120
[11]
  CC50 at 5 days: 40 µM
